{
  "source": "paper PMC9232612",
  "about": "“A phase 1b randomised controlled trial of a glucagon-like peptide-1 and glucagon receptor dual agonist IBI362 (LY3305677) in Chinese patients with type 2 diabetes” (Nature Communications, 2022)",
  "type_in_all_cases": "in vivo, human",
  "key": {"[1]": {"test_system": "Chinese patients with T2D", "experiment": "Mixed-meal tolerance test (MTT): C peptide", "conditions": "1.5 mg once weekly, n=6", "method": "(§1) HbA1c (2200101, Bio-Rad, USA), blood glucose (05168791190, Roche Diagnostics, Germany), insulin (12017547122, Roche Diagnostics, Germany), C peptide (03184897190, Roche Diagnostics, Germany), total GLP-1 (GLP-1 [7–36] amide and its metabolite, GLP-1 [9–36] amide, 10-1278-01, Mercodia AB, Sweden) and OXM (AL-139, AnshLabs, USA) tests were performed according to the manufactures’ instruction manuals in a central laboratory (KingMed Diagnostics, Guangzhou, China). HbA1c was measured using a Bio-rad D-100 Haemoglobin Testing System (Bio-rad). Blood glucose was measured using a Roche Cobas c702 analyser (Roche Diagnostics). Insulin and C peptide were measured using a Roche […] analyser (Roche Diagnostics). GLP-1 and OXM were measured using a Tecan Infinite M Plex microplate reader (TECAN).\nStandard non-compartmental pharmacokinetics methods were used to analyze IBI362 plasma concentration data using Pkanalix 2020R1 (Lixoft, Antony, France). Secondary efficacy outcomes included change from baseline to week 12 in HbA1c, fasting plasma glucose (FPG), fasting insulin levels, change from baseline to week 12 in post-mixed-meal tolerance test (post-MTT) glucose, insulin, C peptide, GLP-1 and OXM levels, as well as seven-point self-measured blood glucose (SMBG) profile.\nIBI362 Innovent Biologics (Suzhou) Co., Ltd. CIBI362A101\n(§2) 3. Standard meal test (MTT) collection measures included: insulin, C-peptide, plasma glucose, glucagon, endogenous OXM, and endogenous GLP-1. The sampling points include: fasting, 30 min, 1h, 2h, 3h and 4h.\n(§3) A total of 9 mL blood will be collected from each blood collection point. See the manual of the central laboratory for the detailed operation process. Fasting state refers to fasting for 10 hours. [ The standard meal is\n(§4) instant noodles. The master Kang roast beef noodles (bucket noodles) purchased by the sponsor in a unified manner are removed from the oil bag. The noodles are soaked in boiled water and then removed. The seasoning\n(§5) bag is added and mixed well. The time is counted from the first bite of eating. The noodles are eaten within 10 minutes, and 200 mL of water is drunk; or the instant noodles are directly opened with 200 mL of boiled\nwater to ensure that the noodles are eaten and the water or soup is drunk]. Visit days when MTT test is performed: 1 day prior to Cycle 1 administration, Day 80 (D80).\n4. If the patient experiences drug-related adverse events during dose escalation and meets the protocol-specified tolerance criteria, dose adjustment is required at the investigator's discretion, and a standard meal test\nshould be performed 48 hours after the first dose after dose adjustment.\n(§6) ● Test by central laboratory"}, "[2]": {"test_system": "Chinese patients with T2D", "experiment": "Alanine aminotransferase and aspartate aminotransferase levels", "conditions": "1.5 mg once weekly", "text": "(§7) Primary outcomes of the study were the safety and tolerability of IBI362. Safety assessment included adverse events, physical examinations, laboratory tests (including lipase, amylase and calcitonin level measures), vital signs and 12-lead electrocardiogram. Adverse events were categorized according to the Medical Dictionary for Regulatory Activities system organ classes (SOCs) and preferred terms. Treatment-emergent adverse events (TEAEs) were monitored from the time of informed consent to the safety follow-up period. The severity of TEAEs (mild, moderate or severe) and the association between an event and the study drug were assessed by investigators based on pre-specified criteria.\nCFB in ALT (U/L), mean (SD)\nCFB in AST (U/L), mean (SD)\nFig. S2: Change from baseline in ALT and AST levels over time.\na. CFB in ALT levels over time. b. CFB in AST levels over time. Data are plotted as means +/- SD.\nALT = alanine aminotransferase; AST = aspartate aminotransferase; CFB = change from baseline;\nSD = standard deviation. Source data are provided as a Source Data file. […]"}, "[3]": {"test_system": "Chinese patients with T2D", "experiment": "Blood pressure (systolic, diastolic)", "conditions": "Dulaglutide group; mean", "text": "as §7\nFig. S7: Change from baseline in waist circumference, BMI and blood pressure at week 12. a. CFB in waist circumference at week 12. b. CFB in BMI at week 12. c. CFB in blood pressure at week 12. Data are plotted as means +/- SD. a. IBI362 3.0 mg n = 7; IBI362 4.5 mg n = 5; IBI362 6.0 mg n = 8; Pooled placebo n = 11; Dulaglutide n = 6. b. IBI362 3.0 mg n = 7; IBI362 4.5 mg n = 5; […]\nmg n = 6; IBI362 6.0 mg n = 8; Pooled placebo n = 11; Dulaglutide n = 6. BMI = body-mass index; CFB = change from baseline; DBP = diastolic blood pressure; SBP = systolic blood pressure; SD = standard deviation. Source data are provided as a Source Data file.\nCFB in BMI at week 12 (kg/m2), […]\nat week 12 (mm Hg), mean (SD)\nCFB in waist circumference at week 12 (cm), mean (SD) […]"}, "[4]": {"test_system": "Chinese patients with T2D", "experiment": "Mixed-meal tolerance test (MTT): insulin", "conditions": "1.5 mg once weekly, n=6", "method": "as §1\nStandard non-compartmental pharmacokinetics methods were used to analyze IBI362 plasma concentration data using Pkanalix 2020R1 (Lixoft, Antony, France). Secondary efficacy outcomes included change from baseline to week 12 in HbA1c, fasting plasma glucose (FPG), fasting insulin levels, change from baseline to week 12 in post-mixed-meal tolerance test (post-MTT) glucose, insulin, C peptide, GLP-1 and OXM levels, as well as seven-point self-measured blood glucose (SMBG) profile. […]\nas §2, §3, §4, §5\nwater to ensure that the noodles are eaten and the water or soup is drunk]. Visit days when MTT test is performed: 1 day prior to Cycle 1 administration, Day 80 (D80). […]\nas §6"}},
  "data": [
    {"substance": "Dulaglutide: open-label active reference, subcutaneously once weekly at a fixed dose of 1.5 mg [reference compound]", "values": [
      {"measurement": "C peptide during MTT, mean", "setting": "[1]; week 12, 0 min", "result": 3.04, "unit": "ng/mL"},
      {"measurement": "C peptide during MTT, mean", "setting": "[1]; week 12, 30 min", "result": 4.18, "unit": "ng/mL"},
      {"measurement": "C peptide during MTT, mean", "setting": "[1]; week 12, 60 min", "result": 6.16, "unit": "ng/mL"},
      {"measurement": "C peptide during MTT, mean", "setting": "[1]; week 12, 120 min", "result": 8.34, "unit": "ng/mL"},
      {"measurement": "C peptide during MTT, mean", "setting": "[1]; week 12, 180 min", "result": 5.85, "unit": "ng/mL"},
      {"measurement": "C peptide during MTT, mean", "setting": "[1]; week 12, 240 min", "result": 4.53, "unit": "ng/mL"},
      {"measurement": "Change from baseline in ALT, mean", "setting": "[2]; week 4", "result": -3.70, "unit": "U/L"},
      {"measurement": "Change from baseline in AST, mean", "setting": "[2]; week 4", "result": 0.83, "unit": "U/L"},
      {"measurement": "Change from baseline in ALT, mean", "setting": "[2]; week 8", "result": -4.33, "unit": "U/L"},
      {"measurement": "Change from baseline in AST, mean", "setting": "[2]; week 8", "result": 1.53, "unit": "U/L"},
      {"measurement": "Change from baseline in ALT, mean", "setting": "[2]; week 12", "result": -6.92, "unit": "U/L"},
      {"measurement": "Change from baseline in AST, mean", "setting": "[2]; week 12", "result": 1.58, "unit": "U/L"},
      {"measurement": "Change from baseline to week 12 in blood pressure, diastolic", "setting": "[3]", "result": 4.0, "unit": "mm Hg"},
      {"measurement": "Change from baseline to week 12 in blood pressure, systolic", "setting": "[3]", "result": 5.8, "unit": "mm Hg"},
      {"measurement": "Insulin during MTT, mean", "setting": "[4]; week 12, 0 min", "result": 13.40, "unit": "μU/mL"},
      {"measurement": "Insulin during MTT, mean", "setting": "[4]; week 12, 30 min", "result": 30.21, "unit": "μU/mL"},
      {"measurement": "Insulin during MTT, mean", "setting": "[4]; week 12, 60 min", "result": 53.77, "unit": "μU/mL"},
      {"measurement": "Insulin during MTT, mean", "setting": "[4]; week 12, 120 min", "result": 63.25, "unit": "μU/mL"},
      {"measurement": "Insulin during MTT, mean", "setting": "[4]; week 12, 180 min", "result": 30.85, "unit": "μU/mL"},
      {"measurement": "Insulin during MTT, mean", "setting": "[4]; week 12, 240 min", "result": 21.56, "unit": "μU/mL"}
    ]}
  ]
}
